Measurements taken from patent US6472157B2, “Methods for detection of promoter polymorphism in a UGT gene promoter” (Arch Development Corporation, priority 1999, dated 2002).
“Also recorded” adds a separate entry of the source.

What was measured:
[1] = tested on: cytochrome P450 enzymes; assay: 7-ethoxycoumarin O-deethylation in human liver samples; type: in vitro ADME; settings: liver samples used in the genotype study
Description: To evaluate the functional viability of microsomal drug-metabolizing enzymes in the liver samples used in this study, the livers were screened for 7-ethoxycoumarin O-deethylation, as 7-ethoxycoumarin is oxidized to umbelliferone by multiple cytochrome P450 enzymes. The method used is described by Evans & Relling, J. Chromatogr., 578:141-145 (1992).

[2] = tested on: UGT; assay: AZT glucuronidation assay in rat liver microsomes (control); type: in vitro ADME; settings: microsomes from normal rats and Gunn rats; AZT 5 mM, 1 hour
Description: (§1) To ensure the viability and functional enzymatic activity of the microsomal preparations, the UGT activity toward another substrate, AZT (3′-azido-3′-deoxythymidine) was investigated as a control. Liver microsomes from normal humans, CN-1 patients, normal rats, and Gunn rats were prepared as described above. Investigations were performed in pooled microsomes from normal rats, normal humans and Gunn rats, while microsomes from CN-1 patients were used individually.
(§2) Microsomes were preincubated with oleolyl lysophosphatidylcholine (OLPC) (0.8% wt/wt. OLPC/microsomal protein) at 4° C. for 20 minutes. The final reaction mixture contained 1 mg/ml preincubated microsomes, AZT (5 mM), MgCl2 (10 mM), 0.2 M Tris-HCl buffer (pH 7.3), and UDPGA (10 mM) in a final volume of 300 μl. After an incubation period of 1 hour at 37° C., the reaction was stopped with the addition of 30 μl of HCl. Proteins were removed after centrifugation at 10,500 g for 5 minutes and 30 μl aliquots of the supernatant were subjected to HPLC analysis and the metabolites were detected in an ultraviolet detector at a wavelength of 265 nm. The mobile phase consisted of a 15:85 mixture of acetonitrile/ammonium phosphate buffer (0.1% vol/vol phosphoric acid, adjusted to pH 2.7 with ammonium hydroxide) used at a flow rate of 1 ml/min. […]

[3] = tested on: UGT; assay: AZT glucuronidation assay in human liver microsomes (control); type: in vitro ADME; settings: microsomes from normal humans and CN-1 patients; AZT 5 mM, 1 hour
Description: as §1, §2

[4] = tested on: UGT; assay: PNP glucuronidation in human liver microsomes; type: in vitro ADME; settings: PNP 360 μM, 10 minutes
Description: The formation of glucuronidated PNP was quantified by the following method. […] The reaction was stopped by the addition of 2.8 ml of 0.2 M glycine-NaOH buffer (pH 10.4). Samples were centrifuged at 2,500 rpm for 30 minutes, and UGT activity in the supernatant was analyzed colorimetrically in a spectrophotometer by measuring the disappearance of the substrate at a wavelength of 400 nm.

[5] = tested on: UGT enzymes; assay: SN-38 glucuronidation assay in human liver microsomes; type: in vitro ADME; settings: for mean SN-38 glucuronidation rate (peak area of SN-38 glucuronide ÷ peak area CPT) {SE}: African Americans liver microsomes
Description: (§3) To investigate which UGT enzymes are responsible for SN-38 glucuronidation, the in vitro metabolism of SN-38 was measured using normal human and rat liver microsomes, as well as microsomes from Gunn rats, Gunn, C. H., J. Hered., 29:137-139 (1938), and patients with Crigler-Najjar type I (CN-1) syndrome. Liver microsomes were prepared from normal humans, CN-1 patients, normal rats, and Gunn rats and assayed for SN-38 glucuronidation. Microsomes from human liver samples medically unsuitable for liver transplantation were acquired under the auspices of the Washington Regional Transplant Consortium. In addition, microsomes were prepared by differential centrifugation methods. Purba, H. S., et al., Br. J. Clin. Pharmaocol. 23:447-453, using human liver samples obtained with the approval of the Institutional Review Boards of institutions involved through the Liver Tissue Procurement and Distribution System. Investigations were performed with pooled microsomes from normal rats, normal humans and Gunn rats, while microsomes from CN-1 patients were used individually.
Microsomes (1 mg/ml) were incubated with SN-38 (5 μM), MgCl2 (10 mM), and UDPGA (5 mM) in a 0.1 M Tris-HCl buffer medium (pH 7.4) for 30 minutes at 37° C., in a final volume of 200 μl. After stopping the reaction with 400 μl methanol, the incubation mix was centrifuged at 2,500 rpm for 30 minutes at 4° C. The supernatant was evaporated to dryness under nitrogen and in preparation of analysis by high pressure liquid chromatography (HPLC), the supernatant was reconstituted with 250 μl of a mobile phase consisting of 35% acetonitrile and 65% 0.1 M KH2PO4 containing 3 mM sodium heptane sulphonate (pH 4.0), used at a flow rate of 0.8 ml/min. A C18μ Bondapak column (10 μm, 3.9×300 mm) was used with fluorescence detection at the following wavelengths: 355 nm and 515 nm. 100 μl aliquots of the reconstituted supernatant were injected into an HPLC assay system. CPT was used as the internal standard. […] Retention times were approximately 3.5, 9, and 10 minutes, respectively. The peaks for each of these compounds were confirmed using standards of SN-38G, SN-38, and CPT.
Microsomes (1 mg/ml) were obtained from human liver tissue samples and were incubated with SN-38 (5 μM), MgCl2 (10 mM), and UDPGA (5 mM) in a 0.1 M Tris-HCl buffer medium (pH 7.4) for 30 minutes at 37° C., in a final volume of 200 μl. SN-38, SN-38G and the internal standard, CPT, were separated using high performance liquid chromatography (HPLC) coupled to fluorescence detection (ex=355 nm and em=515 nm). SN-38 reaction rates were linear for incubation times up to at least 1.5 hours and for final protein concentrations of up to 2 mg/ml. The results of this analysis, shown in Table 2 below, also include the liver samples of Caucasian origin from the first study. […]

[6] = molecular target: T1, human UGT1A1 (Homo sapiens, UniProt P22309); assay: SN-38 glucuronidation by cDNA-expressed UGT1A1 in HK293 cells; settings: HK293 cells expressing UGT1A1; increased with increasing protein concentrations
T1 sequence (P22309 26-533): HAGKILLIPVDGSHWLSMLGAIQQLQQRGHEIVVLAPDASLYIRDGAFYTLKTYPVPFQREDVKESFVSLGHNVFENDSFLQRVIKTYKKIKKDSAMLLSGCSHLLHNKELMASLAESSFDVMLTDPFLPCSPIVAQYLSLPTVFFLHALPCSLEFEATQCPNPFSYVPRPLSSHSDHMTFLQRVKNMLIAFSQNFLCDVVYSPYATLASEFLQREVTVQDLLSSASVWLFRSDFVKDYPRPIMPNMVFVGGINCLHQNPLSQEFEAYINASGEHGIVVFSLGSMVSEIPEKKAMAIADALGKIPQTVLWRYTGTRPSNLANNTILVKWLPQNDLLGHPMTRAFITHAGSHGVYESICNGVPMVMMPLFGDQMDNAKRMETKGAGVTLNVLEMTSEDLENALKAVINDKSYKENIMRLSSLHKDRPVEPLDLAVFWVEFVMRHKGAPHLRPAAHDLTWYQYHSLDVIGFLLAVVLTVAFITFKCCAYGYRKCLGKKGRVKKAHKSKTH
Description: (§4) Cell lysates from HK293 cells expressing UGT1A1 (♦), UGT1A4 (□) and UGT2B7 enzymes (Δ), and membrane preparations of HK293 cells expressing UGT1A1 enzyme (●), were screened for SN-38 glucuronidating activity. HK293 cells (⋄) were used as a control. Each data point represents the mean of three separate determinations.
(§5) To determine which particular isozyme of UGT1 glucuronidates SN-38, HK293 cells transfected with and expressing cDNA encoding selected UGT1 isozymes and a member of the UGT2 family (UGT2B7) were screened for SN-38 glucuronidating activity. Culture media and conditions for stable expression of human UGT1A1, UGT1A4, and UGT2B7 have been described previously. Coffman, et al., Mol. Pharmacol., 47:1101-1105 (1995), Green, et al., Drug Metab. Dispos., 23:299-302 (1995); Coffman, et al., Drug Metab. Dispos., 25:1-4 (1997) all are incorporated herein by reference. Briefly, the XbaI/XhoI and BamHI-XhoI fragments of human UGT1A1, UGT1A4, and UGT2B7 were subcloned into the respective corresponding sites of the mammalian expression vectors pcDNA3, pREP9, and pcDNA3.1. HK293 cells were transfected with the vector-UGT isozyme using the calcium phosphate transfection method. Chen, et al., Biotechniques, 6:632-638 (1988). The cells were then assayed for glucuronidation activity as described above.

[7] = relative to Irinotecan; cited from earlier work
[8] = molecular target: T2, human UGT2B7 (Homo sapiens, UniProt P16662); assay: SN-38 glucuronidation by cDNA-expressed UGT2B7 in HK293 cells; settings: HK293 cells expressing UGT2B7; up to a protein concentration of 2 mg/ml
T2 sequence (P16662 24-529): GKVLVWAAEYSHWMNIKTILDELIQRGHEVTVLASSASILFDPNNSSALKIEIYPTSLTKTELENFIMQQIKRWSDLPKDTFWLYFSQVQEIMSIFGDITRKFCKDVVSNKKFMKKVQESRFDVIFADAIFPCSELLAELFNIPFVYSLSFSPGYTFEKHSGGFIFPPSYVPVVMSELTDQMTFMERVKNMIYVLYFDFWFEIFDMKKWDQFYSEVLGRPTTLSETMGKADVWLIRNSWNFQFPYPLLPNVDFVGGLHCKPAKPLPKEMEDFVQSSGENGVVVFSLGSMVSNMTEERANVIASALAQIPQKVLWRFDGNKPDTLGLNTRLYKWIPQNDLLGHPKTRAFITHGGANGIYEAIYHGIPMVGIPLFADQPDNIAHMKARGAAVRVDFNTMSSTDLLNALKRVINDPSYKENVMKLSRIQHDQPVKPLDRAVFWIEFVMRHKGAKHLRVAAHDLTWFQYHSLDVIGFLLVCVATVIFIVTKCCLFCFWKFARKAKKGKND
Description: as §4, §5

[9] = molecular target: T3, human UGT1A4 (Homo sapiens, UniProt P22310); assay: SN-38 glucuronidation by cDNA-expressed UGT1A4 in HK293 cells; settings: HK293 cells expressing UGT1A4; up to a protein concentration of 2 mg/ml
T3 sequence (P22310 29-534): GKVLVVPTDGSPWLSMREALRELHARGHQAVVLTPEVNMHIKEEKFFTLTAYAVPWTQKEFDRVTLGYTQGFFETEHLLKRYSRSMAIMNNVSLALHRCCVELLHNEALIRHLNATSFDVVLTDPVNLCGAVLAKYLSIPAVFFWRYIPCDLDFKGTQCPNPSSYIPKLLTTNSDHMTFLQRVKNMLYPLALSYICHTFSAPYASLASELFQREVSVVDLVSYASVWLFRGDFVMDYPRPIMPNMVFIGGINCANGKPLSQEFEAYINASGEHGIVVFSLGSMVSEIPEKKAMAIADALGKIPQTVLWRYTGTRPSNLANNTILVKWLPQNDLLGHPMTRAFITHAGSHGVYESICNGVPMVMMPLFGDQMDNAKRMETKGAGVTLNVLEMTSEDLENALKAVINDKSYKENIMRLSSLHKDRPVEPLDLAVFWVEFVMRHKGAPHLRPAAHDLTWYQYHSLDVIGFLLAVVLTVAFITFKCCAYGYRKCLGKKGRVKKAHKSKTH
Description: as §4, §5

[10] = tested on: UGT enzymes; assay: SN-38 glucuronidation assay in Gunn rat liver microsomes; type: in vitro ADME; settings: liver microsomes from Gunn rats
Description: as §3
Microsomes (1 mg/ml) were incubated with SN-38 (5 μM), MgCl2 (10 mM), and UDPGA (5 mM) in a 0.1 M Tris-HCl buffer medium (pH 7.4) for 30 minutes at 37° C., in a final volume of 200 μl. […] A C18μ Bondapak column (10 μm, 3.9×300 mm) was used with fluorescence detection at the following wavelengths: 355 nm and 515 nm. […]

Structure (SMILES): CCOc1ccc2ccc(=O)oc2c1 [7-ethoxycoumarin]
- rates of umbelliferone formation (7-ethoxycoumarin O-deethylation) [1]: within the expected range

Structure (SMILES): Cc1cn([C@H]2C[C@H](N=[N+]=[N-])[C@@H](CO)O2)c(=O)[nH]c1=O [AZT, 3′-azido-3′-deoxythymidine]
- in vitro formation of G-AZT [2]: Intact in vitro formation of G-AZT
- in vitro formation of G-AZT [3]: Intact in vitro formation of G-AZT

Structure (SMILES): O=[N+]([O-])c1ccc(O)cc1 [PNP]
- rates of PNP glucuronidation (mean±SEM) [4]: 20.39±2.4 nmol PNP glucuronidated/min/mg protein
- rates of PNP glucuronidation (range) [4]: 16.48-23.82 nmol PNP glucuronidated/min/mg protein

Structure (SMILES): CCc1c2c(nc3ccc(O)cc13)-c1cc3c(c(=O)n1C2)COC(=O)[C@]3(O)CC [SN-38, 7-ethyl-10-hydroxycamptothecin]
- rates of SN-38G formation among individuals (range) ([5]; 25 normal human liver microsomes, SN-38 5 μM, 30 minutes, 37° C.): 0.5-26 pmol of SN-38G formed/min/mg microsomal protein
- mean SN-38 glucuronidation rate (peak area of SN-38 glucuronide ÷ peak area CPT) {SE} ([5]; UGT1A1 promoter genotype 5/7): 0.39
- mean SN-38 glucuronidation rate (peak area of SN-38 glucuronide ÷ peak area CPT) {SE} ([5]; UGT1A1 promoter genotype 6/8): 0.12
- in vitro SN-38 glucuronidating activity ([5]; liver microsomes from CN-1 patients): no in vitro glucuronidation; also recorded: lack SN-38 glucuronidating activity
- SN-38G formation [6]: measurable SN-38G formation
- higher antitumor activity than Irinotecan [7]: 100-1,000 fold
- SN-38 glucuronidating activity [8]: lack of SN-38 glucuronidating activity
- SN-38 glucuronidating activity [9]: lack of SN-38 glucuronidating activity
- in vitro SN-38 glucuronidating activity [10]: no in vitro glucuronidation; also recorded: lack SN-38 glucuronidating activity
